Columns and labels:
[1] = test system: radish sprouts; experiment: Growth promotion effect test I of water-solubilized coenzyme Q10; type: in vivo; settings: high concentration of 100 ppm of coenzyme Q10
Experimental: A Kimtowel was matted on a petri dish, 100 mL of a growth-promoting agent in Example 1 was poured thereon, and 20 seeds of radish sprouts (produced by Noguchi Seed and Seedling Laboratory) were placed thereon. This petri dish was stored at room temperature under a light shielding condition. After 7 days, the sprouts were collected, and a total length and a root length of the radish sprouts were measured. Data as the control was a result obtained by measuring the total length of the plant in the same way as described above, except that city water was used in place of the growth-promoting agent (data as the control described below was a result obtained by the same way described above). Numerical values in the Table represent a mean of measured values unless otherwise explained (Numerical values in the Table described below represent the same described above). A growth rate was calculated based on the following formula (Numerical A growth rate was calculated by the same way described above): [(A−B)/B]×100, wherein A denotes a measured value of the total length of the plant cultivated in the presence of the growth-promoting agent containing coenzyme Q10, and B denotes a measured value of the total length of the plant as the control plant.

[2] = test system: Burdock; experiment: Growth promotion effect test IV of water-solubilized coenzyme Q10; type: in vivo; settings: growth-promoting agent in Example 3 (CoQ10 1 ppm), after 7 days
Experimental: (§1) A required number of petri dishes were prepared, the Kimtowel was matted on the each petri dish, 100 mL of the growth-promoting agent in Example 3 was poured thereon, and 40 seeds (produced by Noguchi Seed and Seedling Laboratory) of the plants described in Table 4 were placed thereon. These petri dishes were stored at room temperature under the light shielding condition. After 7 days, sprouts were collected, and the total length of the plants described in Table 4 was measured. The growth rate was calculated based on the following formula (A growth rate was calculated by the same way described above): [(A−B)/B]×100, wherein A denotes a measured value of the total length of the plant cultivated in the presence of the growth-promoting agent containing CoQ10, and B denotes the measured value of the total length of the plant as the control.

[3] = test system: Crown daisy; experiment: as above; type: in vivo; settings: growth-promoting agent in Example 3 (CoQ10 1 ppm), after 7 days
Experimental: as §1

[4] = test system: Komatsuna; experiment: as above; type: in vivo; settings: growth-promoting agent in Example 3 (CoQ10 1 ppm), after 7 days
Experimental: as §1

[5] = test system: Spinach; experiment: as above; type: in vivo; settings: growth-promoting agent in Example 3 (CoQ10 1 ppm), after 7 days
Experimental: as §1

[6] = test system: Buckwheat; experiment: Growth promotion effect test V of water-solubilized coenzyme Q10; type: in vivo; settings: same way as test IV (CoQ10 1 ppm)
Experimental: (§2) A required number of petri dishes were prepared, the Kimtowel was matted on the each petri dish, 100 mL of the growth-promoting agent in Example 3 was poured thereon, and 40 seeds (produced by Noguchi Seed and Seedling Laboratory) of the plants described in Table 4 were placed thereon. These petri dishes were stored at room temperature under the light shielding condition. After 7 days, sprouts were collected, and the total length of the plants described in Table 4 was measured. The required number of petri dishes was prepared, and the growth-promoting effect on seeds (produced by Noguchi Seed and Seedling Laboratory) of the plants described in Table 5 was examined in the same way as in Growth promotion effect test IV of water-solubilized coenzyme Q10. 30 seeds of wheat were examined. Buckwheat and snow peas were stored at room temperature under the light shielding condition, and collected after 8 days. Spinach was stored at room temperature under the light shielding condition, and collected after 9 days.

[7] = test system: Chives; experiment: as above; type: in vivo; settings: same way as test IV (CoQ10 1 ppm)
Experimental: as §2

[8] = test system: Green onions; experiment: as above; type: in vivo; settings: same way as test IV (CoQ10 1 ppm)
Experimental: as §2

[9] = test system: Snow peas; experiment: as above; type: in vivo; settings: same way as test IV (CoQ10 1 ppm)
Experimental: as §2

[10] = test system: Wheat; experiment: as above; type: in vivo; settings: 30 seeds, same way as test IV (CoQ10 1 ppm)
Experimental: as §2

[11] = Precipitation of coenzyme Q10 in the growth-promoting agent; type: physicochemical; settings: growth-promoting agent diluted with city water, up to 100 ppm
Experimental: First, 1.25 g of water-solubilized coenzyme Q10 (Aqua Q10-P40 containing coenzyme Q10 in an amount of 40% by mass manufactured by Nisshin Pharma Inc.) was diluted using 500 ml of city water to prepare a solution of 1000 ppm of coenzyme Q10. This was diluted with city water to prepare a growth-promoting agent in a solubilized form containing coenzyme Q10 (sometimes described as CoQ10) in the amount of 10 ppm or 100 ppm.

[12] = room temperature, light shielding
[13] = room temperature, light shielding, collected after 8 days

**Q.** Which concentration disorder [1] does the source give for `COC1=C(OC)C(=O)C(C/C=C(\C)CC/C=C(\C)CC/C=C(\C)CC/C=C(\C)CC/C=C(\C)CC/C=C(\C)CC/C=C(\C)CC/C=C(\C)CC/C=C(\C)CCC=C(C)C)=C(C)C1=O` [CoQ10, coenzyme Q10] here?
**A.** The concentration disorder was “without causing a concentration disorder”.

**Q.** And the Growth increase rate ([2]; versus control)?
**A.** The Growth increase rate was 12.7%.

**Q.** What about the “Measured value (total length)” value [2, 12] of the same compound?
**A.** The value was 4.96 cm.

**Q.** What about the Growth increase rate ([3]; versus control) of the same compound?
**A.** The Growth increase rate was 17.9%.

**Q.** And the “Measured value (total length)” value [3, 12]?
**A.** Its value is 5.46 cm.

**Q.** And the Growth increase rate ([4]; versus control)?
**A.** The Growth increase rate was 15.6%.

**Q.** What about the “Measured value (total length)” value [4, 12] of the same compound?
**A.** The value was 8.87 cm.

**Q.** And the Growth increase rate ([5]; versus control)?
**A.** Its Growth increase rate is 10.5%.

**Q.** What about the “Measured value (total length)” value [5, 12] of the same compound?
**A.** Its value is 4.22 cm.

**Q.** And the Growth increase rate ([6]; after 8 days, versus control)?
**A.** The Growth increase rate was 12.8%.

**Q.** What about the “Measured value (total length)” value [6, 13] of the same compound?
**A.** Its value is 25.01 cm.

**Q.** What about the “Measured value (total length)” value [7, 12] of the same compound?
**A.** Its value is 2.90 cm.

**Q.** And the Growth increase rate ([7]; versus control)?
**A.** The Growth increase rate was 22.4%.

**Q.** What about the “Measured value (total length)” value [8, 12] of the same compound?
**A.** The value was 3.02 cm.

**Q.** What about the Growth increase rate ([8]; versus control) of the same compound?
**A.** The Growth increase rate was 19.4%.

**Q.** What about the Growth increase rate ([9]; after 8 days, versus control) of the same compound?
**A.** Its Growth increase rate is 17.1%.

**Q.** And the “Measured value (total length)” value [9, 13]?
**A.** The value was 29.31 cm.

**Q.** And the “Measured value (total length)” value [10, 12]?
**A.** Its value is 14.16 cm.

**Q.** And the Growth increase rate ([10]; versus control)?
**A.** Its Growth increase rate is 44.6%.

**Q.** What about the “precipitation of coenzyme Q10” value [11] of the same compound?
**A.** The value was “not precipitated”.

— patent US20100179061A1, “PLANT GROWTH PROMOTER” (Nisshin Pharma Inc., priority 2007, published 2010)
